Assay [1] concerns MDA-MB231 breast cancer cell line. The assay can be described thus: MTT cell viability assay (IC50). Format: cell-based. The note with it: Homo sapiens, MDA-MB-231; MDA-MB231 cells, single dose of treatment, 10^−9 to 10^−4 M, 570 nm absorbance, FIG. 1; read-out: IC50 (half-maximal inhibitory concentration). The method, then:
HCT 116 colon cancer and MDA-MB231 breast cancer cell lines are used in cell culture experiments.
Cells were treated with high-glucose DMEM medium (Biosera) supplemented with 10% FBS (Gibco) and 1× penicillin/streptomycin (Multicell). The assay was designed to contain 10,000 cells for each well of 24-well cell culture plates before being treated with inhibitors.
Compound of formula I was dissolved with DMSO as 20 mM stock. 24 hours later, the solution was diluted in DMEM with 10% FBS and final concentration of vehicle DMSO was 0.5% at maximum. Therefore, the vehicle group included 0.5% DMSO concentration in experiments. Intensive cultivation of cells causes a decrease in proliferation capacity.
The MTT cell viability assay was used to detect values of half-maximal inhibitory concentration (IC50). Different concentrations of compound of formula I ranging between 10^−9 to 10^−4 M were tested on MDA-MB231 cell lines with single dose of treatment. 570 nm absorbance values were recorded and IC50 values were calculated by dose response-inhibition curves and nonlinear regression analysis on Graphpad Prism 8 software. IC50 value of compound of formula I was determined to be […] (FIG. 1).
(Formazan colour is commonly taken as a measure of viable cells.)

The target in another assay is MDM2 protein (Homo sapiens, UniProt Q00987). The note with it: state of the art statement; cited from earlier work.

Here are results for two compounds from US12502392B2, “DRG-MDM2-6 for use as a novel mouse double minute 2 (MDM2) inhibitor” (BAHCESEHIR UNIVERSITESI, priority 2021, dated 2025).

pIC50: −log10 of the molar value.

Sequence of MDM2 protein (Q00987 whole entry, species assumed): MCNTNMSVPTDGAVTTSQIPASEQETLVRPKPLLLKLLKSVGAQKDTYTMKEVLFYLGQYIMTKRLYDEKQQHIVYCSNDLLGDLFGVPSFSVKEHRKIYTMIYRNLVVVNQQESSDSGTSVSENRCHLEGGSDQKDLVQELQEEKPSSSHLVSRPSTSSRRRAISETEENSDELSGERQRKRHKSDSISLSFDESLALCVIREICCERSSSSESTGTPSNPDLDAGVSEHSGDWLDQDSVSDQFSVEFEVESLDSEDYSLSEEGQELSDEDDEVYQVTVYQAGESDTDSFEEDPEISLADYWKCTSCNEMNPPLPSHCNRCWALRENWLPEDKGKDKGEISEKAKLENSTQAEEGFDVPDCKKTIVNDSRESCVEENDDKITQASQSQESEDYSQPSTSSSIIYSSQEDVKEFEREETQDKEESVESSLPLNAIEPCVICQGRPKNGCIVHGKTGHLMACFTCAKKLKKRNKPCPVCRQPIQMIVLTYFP

Consider `O=C(CCCc1nc2ccccc2c(=O)[nH]1)NC(Cc1c[nH]c2ccccc12)C(=O)O` (centres unmarked) [compound of formula I], for which the pIC50 in assay [1] was 4.89. For MI-319, at MDM2 protein, the “binding affinity to MDM2 relative to a natural p53 peptide” value is recorded as 500 fold.
